Measurements reported in patent US10183080B2, “Use of single dendritic wedge cell penetrating peptides to facilitate cellular delivery of nanoparticles and nanoparticles carrying cargos” (The Government of the United States of America, as …, priority 2016, dated 2019).
Where no end group is shown, it is not given here.

How the values were obtained:
[1] = Dynamic light scattering of QD-peptide conjugates; type: physicochemical; settings: DLS; 5 peptides/QD; 50 nM QD, 0.1×PBS pH 7.4, 25° C.
From the text: Dynamic Light Scattering (DLS) analysis was next undertaken to measure the QD-peptide conjugates hydrodynamic diameter (HD) and diffusion coefficients. Based on the values estimated above, assembly ratios of 5 peptides/QD were utilized during these measurements. The QD-(Arg9)1 conjugate's HD increases from the QD only value of 24.3±1 nm to ˜26.7±1.3 nm. HD values for the QD-(Arg9)2-8 conjugates are essentially the same within experimental error with an average value of 30.5±0.5 nm while the QD-(Arg9)16 increases to ˜33 nm. The diffusion coefficients follow the same trend but in an inverse manner from ˜17 to 13 μm^2/s. […] They support the notion that the peptides are attached via the His6 region to the QD surface and that the polyproline regions span through the PEG layer displaying the poly(Arg) motifs on the QD's surface through the surrounding PEG layer as intended in the synthetic design.
Dynamic light scattering (DLS) measurements were carried out using a ZetaSizer NanoSeries equipped with a HeNe laser source (λ=633 nm, Malvern Instruments Ltd, Worcestershire, UK) and analyzed using Dispersion Technology Software (DTS, Malvern Instruments Ltd). 50 nM concentration solutions of QDs were loaded into disposable cells, and data were collected at 25° C. All samples were prepared in 0.1×PBS buffer pH 7.4. For each sample, the autocorrelation function was the average of five runs of 10 s each and then repeated from three to six times. CONTIN analysis was used to determine the number versus hydrodynamic size profiles for the dispersions studied.

COS-1 cells [2] = test: Cellular uptake of QD-dendritic peptide bioconjugates (fluorescence/confocal imaging); type: cell-based, African green monkey; settings: 4 h incubation, 100 nM QD, 5 peptides/QD
Protocol: COS-1 cells were incubated for 4 h with 150 μL of a 100 nM solution of QDs assembled with the (Arg9)1-16 peptide series at ratio of 5/QD. This ratio was chosen since it represents a value where stochastic assembly events are minimized and correlates with ratios used in the DLS and SPR analysis. Cells were then incubated with the Transferrin Alexa647 endosomal marker for another hour prior to washing and processing which included counterstaining with the DAPI nuclear dye as described in the Methods section. FIGS. 4A through 4G present representative micrographs collected from these samples as projections of confocal stacks and side profiles of the cells. […] The bright yellow PL also observed in these images reflects colocalization of the green QDs with the red Alexa647 marker and confirms that the QDs are located in the endolysosomal system with a primary perinuclear localization as expected following endosomal vesicular uptake.
Kinetics of Poly(Arg)1-16-mediated QD uptake into cells were next evaluated. For this, 150 μL of 100 nM QDs assembled with a ratio of 5 peptides/QD were exposed to COS-1 cells for fixed time periods of 0.5, 1, 4, 8 and 24 h. […] Some delivery trends are visible from a comparison across these images. […] The amount and brightness of QD labeling in the endosomes directly correlates with the increase in the dendritic poly(Arg) display on the QD surface. Additionally, as the cellular exposure time increases, the amount of QD uptake increases proportionally as well. The measured PL intensity per cell from these representative images is plotted in FIG. 5B highlighting the general trends. Although some variability was noted (most likely due to the inherent noisy background found in such gross cellular studies), replicate samples reproduced the same generalized trends of increased poly(Arg)n dendritic branching and increased cellular exposure time leading to increased bioconjugate uptake and PL intensity. […]

COS-1 cells [3] = test: Dendritic peptide-mediated delivery of cargo-decorated QDs; type: cell-based, African green monkey
From the text: Lastly, as proof of concept, tests were made of the ability of the dendritic peptides to facilitate QD delivery, when the QDs are decorated with additional “cargo.” For this, following initial attachment of the (Arg9)n peptides to the QDs, they were further assembled with one of three prototypical cargos, a dye-labeled peptide, a drug-labeled peptide and a fluorescent protein. FIG. 8B presents a series of representative images that highlight some of the results achieved using 520 nm emitting QDs functionalized with a zwitterionic compact ligand 4; this ligand was used as it still allows larger proteins access to the QD surface for (His)n-binding unlike PEG which can sterically preclude them. […] Analogous to the data shown above, peptides with higher (Arg9)n dendrimeric branching, use of higher ratios of peptide/QD, and longer delivery times each served to facilitate higher levels of QD-cargo conjugate uptake into the cells (data not shown).
CdSe/ZnS core/shell QDs with emission maxima centered at 550 nm were synthesized as described. These were rendered hydrophilic through cap exchange of the native hydrophobic ligands with polyethylene glycol-(average MW 750 Da) appended dihydrolipoic acid ligands terminating in methoxy groups (DHLA-PEG750-OMe, see FIG. 1B) as described. For cargo delivery experiments, 520 nm emitting QDs functionalized with a zwitterionic compact ligand 4 (CL4) were utilized.
Aliquots of African green monkey kidney fibroblast-like COS-1 cells (CRL-1650) from American Type Culture Collection (ATCC, Manassas, Va., USA) were cultured in Dulbecco's Modified Eagle's Medium (DMEM, ATCC) supplemented with 10% (v/v) heat-inactivated fetal bovine serum (ATCC) and 1% antibiotic/antimycotic at 37° C. in a humidified atmosphere containing 95% air/5% CO2. Aliquots were allowed to adhere to the culture flask and reach 80% confluency, usually within 3 to 4 days. The monolayer was harvested by washing once with PBS, once with calcium/magnesium-free PBS, and incubating the monolayer with trypsin until detachment from the culture flask (usually within 5 min). Cells were seeded at 1-2×10^4 cells/well in Lab-Tek 8-well chambered No. 1 borosilicate cover glass system (Nalge Nunc, Rochester N.Y., USA) that had been previously coated for at least 4 h with fibronectin (5 μg/mL, Life Technologies). Cells were allowed to adhere to the bottom of the wells by further culture overnight at 37° C. in 95% air/5% CO2 air. Following overnight culture, media was removed and washed with 100 μL of 25 mM HEPES supplemented with 1 mM sodium pyruvate. […]
For cargo delivery experiments, mCherry fluorescent protein was prepared as described in the literature. […] Cytotoxicity assays were determined using the Vybrant® MTT Cell Proliferation Assay Kit. […]

| Substance | HD (hydrodynamic diameter) [1] [nm] | QD uptake (QD PL in confocal micrographs) (COS-1 cells [2]) | comparative performance in cargo delivery experiments (COS-1 cells [3]; low valencies, short delivery times (data not shown)) | delivery of QDs decorated with ~25 doxorubicin labeled peptides (COS-1 cells [3]; ratio 0.5 peptide/QD, 1 h exposure, cargo MW ~50 kDa, 520 nm CL4 QDs) | delivery of ~30 mCherry per QD (COS-1 cells [3]; ratio 1 peptide/QD, 1 h exposure, cargo MW ~850 kDa, 520 nm CL4 QDs) | delivery of QDs decorated with ~30 Cy5 labeled peptides (COS-1 cells [3]; ratio 1 peptide/QD, 2 h exposure, cargo MW ~100 kDa/QD, 520 nm CL4 QDs) |
| --- | --- | --- | --- | --- | --- | --- |
| [(RRRRRRRRRFG)-x-hex-P9G]2-K′WGH6 (peptide RRRRRRRRRFGPPPPPPPPPG; chain KWGHHHHHH) [(Arg9)2, generation 1 dendritic wedge peptide displaying two Arg9 motifs] | 30 ± 1.4 |  |  |  |  |  |
| [RRRRRRRRRFG]4-x-K′K′WP9G2H6 [(Arg9)4] | 30.7 ± 2.0 |  |  |  |  |  |
| [RRRRRRRRRFG]8-x-K′K′K′WP9G2H6 [(Arg9)8] | 30.9 ± 1.4 | most intense QD PL | worked best | allowed delivery | allowed delivery | facilitated delivery |
| [RRRRRRRRRFG]16-x-K′K′K′K′WP9G2H6 [(Arg9)16] | 32.7 ± 4.9 | most intense QD PL |  |  |  |  |
| [RRRRRRRRRFG]-x-hex-hex-WP9G2H6 (RRRRRRRRRFGWPPPPPPPPPGGHHHHHH; not fully specified (residue 11); also: oxime bond (x) between G11 and hexamine spacers) [(Arg9)1, functions as control] | 26.7 ± 1.3 | no appreciable QD uptake |  |  |  |  |
